{"source": "patent US20250276008A1", "about": "“USE OF LITHIUM-CONTAINING COMPOUNDS IN TREATMENT OF TUMORS” (Institute of Basic Medical Sciences Chinese Academy of …, priority 2023, published 2025)", "key": {"OVA-B16 melanoma cells": {"system": "OVA-B16 melanoma cells", "method": "In order to further verify the anti-tumor immune response specific for CD8^+ T cells induced by LC, on the basis of the established tumor-bearing mice above (Example 7), 1×10^6 CD45.1 OT-1 T tumor-specific CD8^+ T cells were sorted and adoptively transferred through the tail vein to wild-type C57 mice 24 hours before the subcutaneous tumor inoculation. After 24 hours, 1×10^5 OVA-B16 melanoma cells were subcutaneously inoculated into the right back of the mice."}, "lysosomal V-ATPase": {"system": "lysosomal V-ATPase", "experiment": "Lysosomal pH, Atp6v0c, H+ (deuterium) flow and Li+ accumulation in CD8+ T cells", "type": "cell-based, mouse", "method": "(§1) In order to better track the flow of H^+, ^2D (deuterium)-acetic acid (DAC) or ^2D-sulfuric acid (D2SO4) was added to the culture medium of CD8^+ T cells. […] The K-loop of V-ATPase is located in the hydrophobic lipid bilayer and is essential for the pumping of cytosolic H^+ into the lysosomal lumen. Li^+ has been reported to bind to the K-loop of V-ATPase in Enterococcus hirde and induce deprotonation of the Glul39 residue (J. Am. Chem. Soc. 2011.133. 2860-2863)."}, "MCT1": {"system": "MCT1", "experiment": "Localization of MCT1 to mitochondria (Western blot of isolated T cell mitochondria)", "type": "cell-based, mouse", "conditions": "Western blot of isolated T cell mitochondria", "excerpt": "The inventor further explored the molecular mechanism by which LC led to the shunting of lactic acid to mitochondria. Entry of lactic acid into mitochondria requires the localization of MCT1 to the inner mitochondrial membrane IMM (Redox Biol. 2020 August;35:101454). […] MCT1 is generally recognized as a secreted protein with an endoplasmic reticulum-targeting sequence that enters the endoplasmic reticulum and localizes to the plasma membrane. We hypothesized that LC could induce MCT1 variants with mitochondrial targeting sequences (MTSs). However, no MCT1 variant was found in LC-treated T cells by sequencing analysis, and only one transcript of MCT1 was found after alignment analysis on NCBI. A MTS was found at the N-terminus of MCT-1protein by protein sequence analysis, which was present downstream of the endoplasmic reticulum targeting sequence, forming a double-peak chimeric sequence. This double-peak sequence may direct MCT-1 to target the endoplasmic reticulum or mitochondria, and may be regulated by serine/threonine phosphorylation of PKA or PKC (Avadhani, N. G. 2011. FEBS J 278, 4218-4229)."}, "CD8^+ T cells [1]": {"system": "CD8^+ T cells", "excerpt": "The lactic acid that enters the mitochondria is further converted into pyruvic acid with the participation of lactate dehydrogenase to enter the TCA cycle for oxidative metabolism. LDHa and LDHb are two major lactate dehydrogenase genes that encode LDHa (also known as M subunit) and LDHb (H subunit). The five LDH isozymes from LDH1 to LDH5 consist of M and H subunits, and are 4H, 3H1M, 2H2M, 1H3M and 4M, respectively.\nFurthermore, this study analyzed the molecular mechanism bu which LC promotes the localization and expression of LDHb in mitochondria. […] TFEB is a major regulator of lysosomal functions. […] In addition, Tfeb^fl/fl Lck^cre mice were constructed in this study, and CD8^+ T cells were isolated from the spleen of mice to repeat the above experiments."}, "mouse melanoma B16 cells": {"system": "mouse melanoma B16 cells", "conditions": "75 mg/kg by gavage", "method": "Lithium carbonate is an inorganic compound with the chemical formula Li2CO3 and a molecular weight of 73.89. Lithium carbonate was prepared as follows: • 1) 1.000 g of lithium carbonate (Sigma, WXBC5202V) was weighed and placed in a beaker containing 50 mL of double-distilled water, and the volume was brought to 100 mL with double-distilled water. • 2) The mixture was mixed well in an ice water bath for 2 hours to fully dissolve the lithium carbonate. • 3) The solution was aliquoted into 50 mL centrifuge tubes and stored at 4° C.\n(§2) Model establishment: Cultured mouse melanoma B16 cells were resuspended in PBS buffer and inoculated subcutaneously at 1×10^5 cells/mouse into the right back of the mouse, with an injection volume of 50 μL. The needle of a 1 ml syringe was inserted from the right thigh of the mouse, penetrating under the skin to the back, to inject 50 μL of tumor cell suspension subcutaneously to the mouse to form a translucent lump of skin. Care should be taken not to puncture the skin of the mouse. The needle was quickly withdrawn after the injection, so as to avoid any leaking of tumor cells when withdrawing the needle, which would result in tumorigenesis of multiple subcutaneous tumors. Tumor cells were inoculated as soon as possible to maintain cell viability."}, "[2]": {"conditions": "patients with bipolar disorder; J Clin Psychopharmacol. 2017; cited from earlier work"}, "human A375 tumor cells": {"system": "human A375 tumor cells", "conditions": "humanized NSG mice", "method": "Model establishment: NOD.Cg-PrkdcIl2rg<tm1Wjl>SzJ (NSG) mice were irradiated with X-ray irradiation (2 Gy). 10^7 PBMCs from healthy volunteers were adopted into NSG mice through the tail vein within 24 hours. After 24 hours, human A375 tumor cells were digested and counted, 4×10^5 of which were inoculated subcutaneously into the right back of NSG mice, and tumorigenesis generally occurred in about seven days.\n(§3) The proportion of tumor-infiltrating human CD8^+ T cells was analyzed on Day 18."}, "CD8^+ T cells [3]": {"system": "CD8^+ T cells", "remark": "listed apart in the source"}, "4T1 breast cancer [4]": {"system": "4T1 breast cancer", "conditions": "4T1 tumor-bearing mouse model", "excerpt": "(§4) The present inventors further established MC38 colon cancer and 4T1 breast cancer tumor-bearing mouse models."}, "MC38 colon cancer [5]": {"system": "MC38 colon cancer", "conditions": "MC38 tumor-bearing mouse model", "excerpt": "as §4"}, "[6]": {"conditions": "during administration of lithium carbonate 75 mg/kg by gavage", "method": "as §3"}, "4T1 breast cancer [7]": {"system": "4T1 breast cancer", "method": "as §2\n(§5) The present inventor further established MC38 colon cancer and 4T1 breast cancer tumor-bearing mouse models."}, "MC38 colon cancer [8]": {"system": "MC38 colon cancer", "method": "as §2, §5"}, "PKCθ": {"system": "PKCθ", "excerpt": "PKCθ is a new member of the PKC family, which is activated by DAG and is widely expressed in T lymphocytes. […] This enzyme has PLC activity and catalyzes the production of DAG from lysosomal phospholipids."}, "CD8^+ T cells [9]": {"system": "CD8^+ T cells", "experiment": "Cytosolic Ca2+ / lysosomal Ca2+ release in CD8+ T cells", "type": "cell-based, mouse", "excerpt": "Next, we investigated the molecular mechanism by which LC activated TFEB in CD8^+ T cells. It has been reported (Nat Cell Biol. 2015 March;17(3):288-99) that in addition to being able to degrade exogenous or endogenous biomacromolecules, lysosomes, like endoplasmic reticulum and mitochondria, are also storage sites for Ca^2+ and can initiate the transduction of calcium-related downstream signals.\nas §1"}}}
{"smiles": "O=C([O-])[O-].[Li+].[Li+]", "note": "[LC, lithium carbonate]", "values": [{"measurement": "tumor growth in mice", "setting": "OVA-B16 melanoma cells; OVA-B16", "result": "inhibit"}, {"measurement": "expression of the effectors IFN-γ and CD107a", "setting": "OVA-B16 melanoma cells; OVA-B16, Day 18", "result": "increase"}, {"measurement": "number of tumor-infiltrating CD8^+ T cells", "setting": "OVA-B16 melanoma cells; OVA-B16, OT-1 adoptive transfer model, LC 75 mg/kg gavage, Day 18", "result": "increase"}, {"measurement": "efficacy of T cell adoptive therapy", "setting": "OVA-B16 melanoma cells; OVA-B16 melanoma tumor-bearing mice", "result": "enhances"}, {"measurement": "expression of lysosome-related gene Atp6v0c", "setting": "lysosomal V-ATPase", "result": "significantly decreased"}, {"measurement": "lactylation of the Atp6v0c gene (ChIP-seq)", "setting": "lysosomal V-ATPase", "result": "disappeared"}, {"measurement": "entry of deuterium ions into the lysosomal lumen", "setting": "lysosomal V-ATPase; 2D-acetic acid or 2D-sulfuric acid added to culture medium", "result": "significantly inhibited"}, {"measurement": "lysosomal pH", "setting": "lysosomal V-ATPase; LA-treated cells, increased from 4.4 within 30 minutes", "result": 5.9}, {"measurement": "expression / localization of MCT1 in mitochondria", "setting": "MCT1", "result": "significantly increased"}, {"measurement": "expression of LDHa", "setting": "CD8^+ T cells [1]", "result": "up-regulated"}, {"measurement": "expression of LDHb", "setting": "CD8^+ T cells [1]", "result": "up-regulated"}, {"measurement": "expression and nuclear localization of TFEB", "setting": "CD8^+ T cells [1]; results not shown", "result": "significantly up-regulated"}, {"measurement": "growth of B16 tumors", "setting": "mouse melanoma B16 cells; 5 doses from Day 7", "result": "effectively inhibit"}, {"measurement": "survival of mice", "setting": "mouse melanoma B16 cells; B16", "result": "prolong"}, {"measurement": "number of tumor-infiltrating CD8^+ T cells", "setting": "mouse melanoma B16 cells; B16, 5 doses from Day 7, Day 18", "result": "increase"}, {"measurement": "expression of the effectors IFN-γ and CD107a", "setting": "mouse melanoma B16 cells; B16, Day 18", "result": "increase"}, {"measurement": "lactic acid levels in the cerebrospinal fluid", "setting": "[2]", "result": "significantly down-regulate"}, {"measurement": "tumor growth in mice", "setting": "human A375 tumor cells", "result": "inhibited"}, {"measurement": "infiltration of human CD8^+ T cells", "setting": "human A375 tumor cells; LC 75 mg/kg gavage, Day 18", "result": "significantly increased"}, {"measurement": "level of extracellular lactic acid", "setting": "CD8^+ T cells [3]", "result": "reduced"}, {"measurement": "uptake of exogenous lactic acid by CD8^+ T cells", "setting": "CD8^+ T cells [3]", "result": "did not affect"}, {"measurement": "lactic acid in mitochondria", "setting": "CD8^+ T cells [3]; 2D-lactic acid tracing, 2 hours after treating with LC", "result": "highly accumulated"}, {"measurement": "elevation in lactic acid levels in activated CD8^+ T cells caused by exogenous lactic acid", "setting": "CD8^+ T cells [3]; 13C-lactic acid tracing", "result": "counteracted"}, {"measurement": "mitochondrial m+3 lactic acid, nuclear m+3 lactic acid and lactyl-CoA", "setting": "CD8^+ T cells [3]; 13C-lactic acid tracing, after 24 hours", "result": "almost undetectable"}, {"measurement": "oxidation products of lactic acid (m+2 citric acid, m+4 malic acid)", "setting": "CD8^+ T cells [3]; after 24 hours", "result": "more oxidation products of lactic acid were detected"}, {"measurement": "levels of intracellular lactic acid and histone Kla", "setting": "CD8^+ T cells [3]; after 24 hours, versus control group", "result": "significantly lower"}, {"measurement": "therapeutic effect of an anti-PD-1 antibody (tumor size, survival rate)", "setting": "4T1 breast cancer [4]", "result": "enhance"}, {"measurement": "therapeutic effect of an anti-PD-1 antibody (tumor size, survival rate)", "setting": "MC38 colon cancer [5]", "result": "enhance"}, {"measurement": "blood lithium concentration of mice (monitored and maintained)", "setting": "[6]", "result": 1, "unit": "mM"}, {"measurement": "expression of the effectors IFN-γ and CD107a", "setting": "4T1 breast cancer [7]; 4T1", "result": "increase"}, {"measurement": "survival of mice", "setting": "4T1 breast cancer [7]; 4T1", "result": "prolong"}, {"measurement": "number of tumor-infiltrating CD8^+ T cells", "setting": "4T1 breast cancer [7]; 4T1, treated as B16 model", "result": "increase"}, {"measurement": "growth of 4T1 breast cancer", "setting": "4T1 breast cancer [7]; mouse, in vivo", "result": "effectively inhibit"}, {"measurement": "expression of the effectors IFN-γ and CD107a", "setting": "MC38 colon cancer [8]; MC38", "result": "increase"}, {"measurement": "survival of mice", "setting": "MC38 colon cancer [8]; MC38", "result": "prolong"}, {"measurement": "number of tumor-infiltrating CD8^+ T cells", "setting": "MC38 colon cancer [8]; MC38, treated as B16 model", "result": "increase"}, {"measurement": "growth of MC38 colon cancer", "setting": "MC38 colon cancer [8]; mouse, in vivo", "result": "effectively inhibit"}, {"measurement": "DAG levels in CD8^+ T cells", "setting": "PKCθ", "result": "increased"}, {"measurement": "expression of acid sphingomyelinase (ASM) in lysosomes", "setting": "PKCθ", "result": "increased"}, {"measurement": "localization of PKCθ to lysosomes", "setting": "PKCθ", "result": "could induce"}, {"measurement": "PKCθ activation", "setting": "PKCθ; ASM expression interfered with shASM", "result": "could not induce"}, {"measurement": "expression of Mcoln2", "setting": "CD8^+ T cells [9]", "result": "increased"}, {"measurement": "cytosolic Ca^2+ concentrations", "setting": "CD8^+ T cells [9]; results not shown", "result": "increased"}]}
